Data on 9 molecules can be found in PubChem BioAssay (NCI).

Among the test systems are SN12C renal; NCI/ADR-RES ovarian; SK-OV-3 ovarian; TK-10 renal; KM12 colon; K-562 leukemia; LOX IMVI melanoma; SF-539 CNS; UACC-257 melanoma; MALME-3M melanoma.
What all share (test): NCI-60 cell line screen, 48 h

Several values for one entry are separate records, joined by “and”; a condition that tells them apart may be missing. Equal entries are not always repeated.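 These data come from cells grown in 96-well plates and exposed to compound for 48 hours at five concentrations. Here, GI50 denotes the concentration required for 50% inhibition of growth. Definition used: TGI = concentration required for complete inhibition of growth.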 Bounds are passed on as bounds.

`Cc1cn2c(/C=N/N=C(N)N)c(-c3ccccn3)nc2s1`: the GI50 is 14.7 µM in the assay on SN12C renal; > 27.1 µM in the assay with NCI/ADR-RES ovarian; 26.8 µM in the assay with SK-OV-3 ovarian; 16.1 µM with TK-10 renal; 15.4 µM in the assay with KM12 colon; 19.5 µM in the assay on K-562 leukemia. The GI50 in the assay with LOX IMVI melanoma is 20.1 µM; in the assay on SF-539 CNS, 3.35 µM; in the assay on UACC-257 melanoma, 7.78 µM; in the assay on MALME-3M melanoma, 21.8 µM. Besides, the TGI was 29.5 µM in the assay on SN12C renal; > 67.8 µM in the assay with NCI/ADR-RES ovarian; > 65 µM in the assay with SK-OV-3 ovarian; 32.8 µM in the assay on TK-10 renal; 33.2 µM in the assay on KM12 colon; > 100 µM with K-562 leukemia. Further, the TGI with LOX IMVI melanoma came to 46.1 µM; in the assay with SF-539 CNS, 14.4 µM; with UACC-257 melanoma, 17.9 µM; in the assay on MALME-3M melanoma, 44.4 µM.

On to `C=C(CO)[C@@H]1CC[C@]2(COC3CCCCO3)CC[C@]3(C)[C@H](CC[C@@H]4[C@@]5(C)C=C(C=O)C(=O)C(C)(C)[C@@H]5CC[C@]43C)[C@@H]12` (some centres undefined), for which the GI50 is 0.228 µM with SN12C renal; 0.479 µM in the assay on NCI/ADR-RES ovarian; 1.3 µM in the assay on SK-OV-3 ovarian; 0.257 µM in the assay on TK-10 renal; 0.555 µM in the assay with KM12 colon; 0.316 µM in the assay on K-562 leukemia. In addition, the GI50 in the assay on LOX IMVI melanoma was 0.191 µM; in the assay on SF-539 CNS it was 0.196 µM; with UACC-257 melanoma, 0.367 µM; with MALME-3M melanoma it was 0.222 µM. Also, the TGI came out at 0.671 µM with SN12C renal; 1.8 µM with NCI/ADR-RES ovarian; 2.68 µM in the assay on SK-OV-3 ovarian; 0.688 µM in the assay on TK-10 renal; 1.94 µM in the assay on KM12 colon; 1.28 µM in the assay on K-562 leukemia. In addition, the TGI was 0.392 µM with LOX IMVI melanoma, 0.428 µM with SF-539 CNS, 1.61 µM in the assay on UACC-257 melanoma and 0.544 µM in the assay with MALME-3M melanoma.

With `CN1CCN(c2ccc(NC(=O)c3cncnc3Nc3ccc(OCc4ccccn4)c(Cl)c3)cc2)CC1`, the GI50 in the assay on SN12C renal is 3.93 µM; with NCI/ADR-RES ovarian, 6.28 µM; in the assay with SK-OV-3 ovarian, 4.79 µM; in the assay with TK-10 renal, 6.78 µM; in the assay on KM12 colon it was 4.16 µM; in the assay on K-562 leukemia, 0.778 µM. Moreover, the GI50 is 3.39 µM in the assay with LOX IMVI melanoma, 1.09 µM with SF-539 CNS, 0.718 µM with UACC-257 melanoma and 0.886 µM in the assay with MALME-3M melanoma. In addition, the TGI in the assay on SN12C renal was determined as 8.72 µM; with NCI/ADR-RES ovarian it was 17.1 µM; in the assay with SK-OV-3 ovarian it was 11.2 µM; in the assay with TK-10 renal, 15.3 µM; with KM12 colon, 9.63 µM; in the assay on K-562 leukemia, 2.28 µM. The TGI with LOX IMVI melanoma turned out to be 8.46 µM; in the assay with SF-539 CNS, 3.64 µM; with UACC-257 melanoma it was 1.61 µM; in the assay on MALME-3M melanoma, 3.69 µM.

As to `N#Cc1c(N)nc(N2CCOCC2)c(C#N)c1-c1ccccn1`, the GI50 with SN12C renal was > 100 µM; with NCI/ADR-RES ovarian, > 100 µM; in the assay with SK-OV-3 ovarian, > 85.9 µM; in the assay on TK-10 renal it was > 100 µM; in the assay with KM12 colon it was > 100 µM; in the assay on K-562 leukemia it was > 100 µM. Also, the GI50 in the assay with LOX IMVI melanoma, with SF-539 CNS, in the assay on UACC-257 melanoma and in the assay on MALME-3M melanoma was > 100 µM each time. Also, the TGI in the assay on SN12C renal, with NCI/ADR-RES ovarian, with SK-OV-3 ovarian, in the assay on TK-10 renal, in the assay with KM12 colon and in the assay with K-562 leukemia was > 100 µM in each case. Besides, the TGI in the assay with LOX IMVI melanoma, in the assay on SF-539 CNS, in the assay on UACC-257 melanoma and in the assay on MALME-3M melanoma was > 100 µM each time.

For `CCN(CC)C(=S)SCN1C(=O)c2ccccc2S1(=O)=O`, the GI50 with SN12C renal is 53.7 µM; in the assay on NCI/ADR-RES ovarian, > 44.3 µM; in the assay with SK-OV-3 ovarian, > 100 µM; with TK-10 renal, > 52.4 µM; with KM12 colon, 14.4 µM; in the assay on K-562 leukemia it was 24 µM. The GI50 was 29.5 µM in the assay on LOX IMVI melanoma, 41.7 µM in the assay with SF-539 CNS, 56.3 µM in the assay on UACC-257 melanoma and > 48.7 µM in the assay with MALME-3M melanoma. Also, the TGI in the assay with SN12C renal was > 100 µM; in the assay with NCI/ADR-RES ovarian, > 64.9 µM; with SK-OV-3 ovarian it was > 100 µM; in the assay with TK-10 renal, > 100 µM; in the assay on KM12 colon it was > 100 µM; in the assay on K-562 leukemia, > 100 µM. The TGI in the assay on LOX IMVI melanoma is > 66.8 µM; in the assay on SF-539 CNS, > 100 µM; with UACC-257 melanoma, > 100 µM; in the assay with MALME-3M melanoma it was 97.6 µM.

On to `COC(=O)c1cc2c3ccccc3[nH]c2c2sccc12`, for which the GI50 with SN12C renal is 21.8 µM; in the assay with NCI/ADR-RES ovarian, 28.1 µM; in the assay with SK-OV-3 ovarian it was 34.1 µM; in the assay with TK-10 renal, 13.8 µM; in the assay with KM12 colon it was 12.3 µM; in the assay on K-562 leukemia, 15.2 µM. Moreover, the GI50 is 5.68 µM in the assay on LOX IMVI melanoma, 21.5 µM in the assay with SF-539 CNS, 89.6 µM with UACC-257 melanoma and 29.3 µM in the assay with MALME-3M melanoma. The TGI in the assay with SN12C renal was 61.8 µM; in the assay on NCI/ADR-RES ovarian, > 100 µM; in the assay with SK-OV-3 ovarian, > 100 µM; with TK-10 renal, 52.6 µM; with KM12 colon, 87.2 µM; with K-562 leukemia it was > 100 µM. For the same molecule, the TGI in the assay on LOX IMVI melanoma was 24.8 µM; in the assay on SF-539 CNS it was 94.8 µM; in the assay with UACC-257 melanoma, > 100 µM; in the assay with MALME-3M melanoma, 62.7 µM.

In the case of `CCOC(=O)c1cc(-c2ccccc2)[nH]c1N/N=C/c1ccc(Cl)cc1`, the GI50 with SN12C renal is > 100 µM; with NCI/ADR-RES ovarian it was 52.6 µM; with SK-OV-3 ovarian, > 100 µM; in the assay with TK-10 renal it was > 100 µM; in the assay on KM12 colon, > 100 µM; in the assay on K-562 leukemia, 28.4 µM. For the same molecule, the GI50 in the assay on LOX IMVI melanoma is 62.1 µM; in the assay on SF-539 CNS it was > 100 µM; with UACC-257 melanoma, > 100 µM; in the assay on MALME-3M melanoma, > 100 µM. Besides, the TGI in the assay on SN12C renal, with NCI/ADR-RES ovarian, with SK-OV-3 ovarian, with TK-10 renal, in the assay on KM12 colon and with K-562 leukemia was > 100 µM in each case. Also, the TGI with LOX IMVI melanoma, in the assay on SF-539 CNS, in the assay with UACC-257 melanoma and in the assay on MALME-3M melanoma was > 100 µM in each case.

As for `Cc1ccc(NS(=O)(=O)c2cccc(C#N)c2)c2[nH]cc(C#N)c12`, the GI50 is 25.5 µM and 27.3 µM in the assay on SN12C renal; 14.2 µM and 2.49 µM in the assay on NCI/ADR-RES ovarian; 0.829 µM and 0.361 µM in the assay on SK-OV-3 ovarian; 24.6 µM and 22.4 µM in the assay on TK-10 renal; > 51.5 µM and 23.2 µM with KM12 colon; 2.59 µM and 5.08 µM in the assay on K-562 leukemia. Also, the GI50 in the assay on LOX IMVI melanoma is 16.7 µM and 14.9 µM; with SF-539 CNS it was 16.8 µM and 21.5 µM; in the assay with UACC-257 melanoma, 21.9 µM and 22.5 µM; in the assay on MALME-3M melanoma it was 15.5 µM and 12.9 µM. The TGI was > 94.7 µM in the assay on SN12C renal; > 92.5 µM in the assay on NCI/ADR-RES ovarian; 63.4 µM and 74.1 µM in the assay with SK-OV-3 ovarian; > 92.5 µM in the assay with TK-10 renal; > 100 µM with KM12 colon; > 100 µM with K-562 leukemia. Further, the TGI in the assay with LOX IMVI melanoma is > 100 µM; in the assay on SF-539 CNS it was > 81.2 µM; in the assay with UACC-257 melanoma, 69.1 µM and 84.7 µM; in the assay with MALME-3M melanoma, 57.1 µM and 68.2 µM.

Turning to `CC(=[N-])N1CCC[C@@H](Nc2c3ccccc3nc3ccccc23)C1.[Cl][Pt].[NH-]CCC[NH-]`, the GI50 is 0.0214 µM in the assay on SN12C renal; 46 µM with NCI/ADR-RES ovarian; 2.43 µM in the assay with SK-OV-3 ovarian; 2.76 µM with TK-10 renal; 2.49 µM with KM12 colon; 0.375 µM in the assay with K-562 leukemia. The GI50 in the assay on LOX IMVI melanoma was 2.25 µM; with SF-539 CNS it was 2.53 µM; with UACC-257 melanoma, 2.49 µM; in the assay on MALME-3M melanoma, 1.49 µM. In addition, the TGI with NCI/ADR-RES ovarian is > 100 µM; in the assay on SK-OV-3 ovarian it was > 100 µM; with TK-10 renal it was > 46.1 µM; in the assay with KM12 colon, > 100 µM; in the assay on K-562 leukemia it was > 100 µM; in the assay on LOX IMVI melanoma it was > 21.9 µM. The results for the TGI in the assay on SF-539 CNS, with UACC-257 melanoma and in the assay on MALME-3M melanoma were 18.1 µM, > 100 µM and 4.51 µM, respectively.
